This is an account of results in patent US20170342451A1, “BIOSYNTHESIS OF PACLITAXEL INTERMEDIATE” (Board of Trustees of Michigan State University, priority 2012, published 2017).

Molecules are shown by their SMILES.

One assay concerns the target T1, TycA (Brevibacillus parabrevis, UniProt P09095).
T1 construct: this wild-type tycA cDNA encoding the A-, T-, and E-domains was subcloned into a pSU18 vector; made in house; host or cells: Escherichia coli BL21(DE3)
T1 sequence (P09095 with tags, fused parts or gaps): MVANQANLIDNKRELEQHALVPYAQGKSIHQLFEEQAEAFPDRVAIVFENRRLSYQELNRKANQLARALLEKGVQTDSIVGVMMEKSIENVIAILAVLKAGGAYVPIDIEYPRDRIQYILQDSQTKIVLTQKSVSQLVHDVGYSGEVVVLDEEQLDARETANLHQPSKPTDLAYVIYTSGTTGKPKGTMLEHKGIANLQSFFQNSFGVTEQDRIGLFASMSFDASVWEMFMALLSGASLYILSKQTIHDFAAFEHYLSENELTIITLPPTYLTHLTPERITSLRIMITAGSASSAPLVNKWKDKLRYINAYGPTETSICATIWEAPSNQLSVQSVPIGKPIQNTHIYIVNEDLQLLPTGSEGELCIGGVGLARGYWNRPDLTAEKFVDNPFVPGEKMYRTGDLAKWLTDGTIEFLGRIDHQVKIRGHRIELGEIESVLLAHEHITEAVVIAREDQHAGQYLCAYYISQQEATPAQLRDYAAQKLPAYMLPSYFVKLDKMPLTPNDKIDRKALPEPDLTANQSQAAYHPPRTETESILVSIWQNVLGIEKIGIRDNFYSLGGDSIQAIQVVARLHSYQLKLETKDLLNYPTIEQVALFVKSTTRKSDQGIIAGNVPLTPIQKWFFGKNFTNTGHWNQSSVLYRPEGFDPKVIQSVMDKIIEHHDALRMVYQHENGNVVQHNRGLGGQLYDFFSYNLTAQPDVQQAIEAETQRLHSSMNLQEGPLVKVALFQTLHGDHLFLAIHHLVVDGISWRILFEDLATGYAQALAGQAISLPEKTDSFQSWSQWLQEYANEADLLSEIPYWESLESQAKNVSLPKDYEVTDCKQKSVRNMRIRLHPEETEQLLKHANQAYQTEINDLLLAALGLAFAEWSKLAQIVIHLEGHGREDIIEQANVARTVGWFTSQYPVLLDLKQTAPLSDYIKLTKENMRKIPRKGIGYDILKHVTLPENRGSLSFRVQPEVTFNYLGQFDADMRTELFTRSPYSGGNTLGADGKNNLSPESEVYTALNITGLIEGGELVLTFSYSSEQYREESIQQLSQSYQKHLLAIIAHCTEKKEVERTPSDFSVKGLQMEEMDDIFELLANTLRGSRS
It is filed as biochemical, Brevibacillus brevis. As to conditions: ATP at apparent saturation. How it is done:
(§1) Each (S)-α-phenylalanine, (R)-β-phenylalanine, and (2R,3S)-phenylisoserine substrate (at 1 mM) was separately incubated (31° C.) in 100-μL reactions containing 100 mM HEPES (pH 8.0), ATP (1 mM), MgCl2 (3 mM) and TycA or TycA-S563A (20 μg in 0.1-mL assays) to establish steady-state conditions relative to protein concentration and time. Under steady-state conditions, each (S)-α-phenylalanine, (R)-β-phenylalanine, and (2R,3S)-phenylisoserine substrate, at ten concentration intervals from 5 to 1000 μM (in duplicate), was separately incubated with TycA or TycA-S563A for 1 min at 31° C. The reactions were acid-quenched (pH 3 with 10% formic acid), and the biosynthetic products were quantified by LC-ESI-MRM mass spectrometry (Anderson and Hunter, 2006) on the LC-QP/ESI-MS/MS fitted with a C18 Ascentis Express column (2.5×50 mm, 2.7 μm) at 30° C. An aliquot (5 μL) of each sample was loaded onto the column and the analytes were eluted with the CoA-Elution Gradient (see procedures described above). The effluent from the chromatography column was directed to the mass spectrometer where the first quadrupole mass analyzer (in negative ion mode) was set to select for the molecular ion of a biosynthesized (S)-α-phenylalanine-AMP, (R)-β-phenylalanine-AMP, and (2R,3S)-phenylisoserine-AMP. […]

For another assay, the target named is TycA-S563A (Brevibacillus parabrevis, UniProt P09095, S563A). It counts as biochemical, Brevibacillus brevis. Set-up: The T-domain mutant TycA-S563A was also subcloned into a pSU18 vector and heterologously expressed as a His6-fusion; made in house; host or cells: Escherichia coli BL21(DE3). How it is done: as §1

For the molecule `N[C@H](CC(=O)O)c1ccccc1` [(R)-β-Phe, (R)-β-phenylalanine], the “kcat^ATP/KM of TycA lower than the value for conversion to the CoA thioester” value at TycA is given as around 15 fold. The “kcat^ATP” value amounted to 0.00167 ± 0.00017 s⁻¹ on TycA (acyl-AMP formation) and 0.001 ± 0.00017 s⁻¹ at TycA-S563A (acyl-AMP formation, ATP at apparent saturation). Moreover, the “kcat^ATP/KM of TycA-S563A lower than the value for conversion to the CoA thioester” value on TycA-S563A is given as “about 46 fold”.
